# Results from US6482822B1, “N-(iminomethyl)amines derivatives, their preparation, their use as medicines and compositions containing them” (Societe de Conseils de Recherches et d'Applications …, priority 1998, dated 2002).
# Structures can show the parent of a compound that is named as a salt.
smiles,measurement,value
"NC(=Nc1ccc(CCCC(=O)Nc2ccc3[nH]c4ccccc4c3c2)cc1)c1cccs1 (as salt: hydrochloride) [Example 18, 4-(4-{[Amino(2-thienyl)methylidene]amino}phenyl)-N-(9H-carbazol-3-yl)butanamide Hydrochloride]",melting point,> 250 °C
